The assay concerns P. falciparum strain NF54. The assay can be described thus: P. falciparum growth assay ([3H] hypoxanthine incorporation). As to conditions: Plasmodium falciparum; P. falciparum NF54 strain, 72 h incubation, [3H]hypoxanthine incorporation; read-out: IC50 NF54. The format is cell-based. Here is the method: • Cultivation of P. falciparum:
P. falciparum strain NF54 was obtained from the Research and Reference Reagent
Resource Center (MR4) (Manassas, Va.). The two strains were maintained in vitro by a modification of the method of Trager and Jensen. Cultures were maintained in A positive (A+) human erythrocytes suspended at 5% hematocrit in complete medium. 5 g albumax II (Gibco-Invitrogen, Cat No#11021037), 2.5 mg gentamicin (Sigma Aldrich), 25 mM HEPES (Invitrogen), 5 mg hypoxanthine (Sigma), and 1 L of RPMI 1640 (Invitrogen, Cat No#11875085). Cultures were grown in 100 mm petri-dishes (BD Falcon) at a volume of 15 mL and were kept in a standard gas environment of 4% CO2 and 3% 02 at temperature 37° C. in a tri-gas incubator (Cat#3131, Thermo Scientific Forma Series II Water Jacketed). Parasite growth and morphology were observed daily using thin smears at 100× (oil immersion) magnification following staining with Geimsa stain. • P. falciparum growth assay:
The protocol assesses the compound efficacy against the growth of P. falciparum in-vitro.
Parasite growth was detected in assay by the traditional [3H] hypoxanthine incorporation assay as previously described by Desjardins and colleagues (Antimicrob. Agents Chemother., 16(6), 710, 1979). To perform the [3H] hypoxanthine incorporation assay, the new antimalarial agents were serially diluted 1:1 into hypoxanthine-free complete medium to a final volume of 100 μL (final antimalarial agent concentration range, 10,000 nM to 4.8 nM may change in special case) in 96 well sterile cell culture plates. […] All cultures used in the study are albumax II adopted. The microtiter plates were incubated in chamber in a standard gas environment at 37° C. for 72 h. After 48 h of incubation and prior to addition of 50 μL (0.5 μCi/well) 3H-Hypoxanthine (specific activity, 20 Ci/mmol, Conc. 1.0 mCi/ml; American Radiolabeled Chemicals, Inc., St. Louis, Mo.), culture growth was assessed by making the smears that ensures the culture has grown in % p and assay plate is further incubated for 24 h. Following the incubation period, the plates were harvested with a FilterMate cell harvester (Perkin Elmer) onto unifilter-96 GF/B plates, washed with distilled water to remove excess radiochemical and plates were kept for drying 37° C. overnight or 60° C. for 1 h. 50 μL of Microscint scintillation cocktail (Microscint-High Efficiency LSC-Cocktail; Perkin Elmer) added in the unifilter-96 GF/B plates and kept for 15-20 min. The plates were counted in a Top Count NXT microplate scintillation and luminescence counter (Perkin Elmer). The mean values for [3H]hypoxanthine incorporation in parasitized control and non-parasitized control erythrocytes were calculated.
Assay data were analyzed using Graph pad prism ver.5 software. A variable sigmoid dose response curve is plotted keeping log concentrations at X-axis and % inhibition at Y-axis.

By IC50 is commonly meant the point on the concentration scale where inhibition reaches its midpoint. Regarding `O[C@@H]1CCNC[C@H]1n1c2ccc(Cl)cc2c2cc(Cl)cnc21` (single isomer, unassigned) [Compound 55], the IC50 came to 3600 nM.
Turning to `O[C@@H]1CNCC[C@H]1n1c2ccc(C(F)(F)F)cc2c2cc(C(F)(F)F)ccc21` [Compound 60, (3R,4R)-4-(3,6-bis(trifluoromethyl)-9H-carbazol-9-yl)piperidin-3-ol], the IC50 turned out to be 20.5 nM.
Then `O[C@@H]1CCN(Cc2ccccc2)C[C@H]1n1c2ccc(F)cc2c2cc(F)ccc21` (single isomer, unassigned) [Compound 42], with 79.8 nM; and `O[C@H]1CNCC[C@@H]1n1c2ccc(Cl)cc2c2cc(Cl)cnc21` (single isomer, unassigned) [Compound 19], with 93.3 nM; and `O[C@@H]1CCN(CC2CC2)C[C@H]1n1c2ccc(F)cc2c2cc(F)ccc21` [Compound 50, (3R,4R)-1-(cyclopropylmethyl)-3-(3,6-difluoro-9H-carbazol-9-yl)piperidin-4-ol], with 290 nM.
Take `O[C@@H]1CCNC[C@H]1n1c2ccc(C(F)(F)F)cc2c2cc(C(F)(F)F)ccc21` (racemic) [Compound 59, trans-3-(3,6-bis(trifluoromethyl)-9H-carbazol-9-yl)piperidin-4-ol]: the IC50 turned out to be 1300 nM.
`O[C@@H]1CCN(CCC(F)(F)F)C[C@H]1n1c2ccc(Cl)cc2c2cc(Cl)ccc21` [Compound 54, (3R,4R)-3-(3,6-dichloro-9H-carbazol-9-yl)-1-(3,3,3-trifluoropropyl)piperidin-4-ol]: the IC50 is 28.2 nM.
Take `O[C@@H]1CCN(CCc2ccccc2)C[C@H]1n1c2ccc(F)cc2c2cc(F)ccc21` [Compound 52, (3R,4R)-3-(3,6-difluoro-9H-carbazol-9-yl)-1-phenethylpiperidin-4-ol]: the IC50 was determined as 169 nM.
The figure for `O[C@@H]1CNCC[C@H]1n1c2ccc(Cl)cc2c2cc(Cl)cnc21` (single isomer, unassigned) [Compound 20] is 124 nM; for `O[C@@H]1CN(Cc2ccccc2)CC[C@H]1n1c2ccc(F)cc2c2cc(F)ccc21` (relative stereo) [Compound 41, trans-1-benzyl-4-(3,6-difluoro-9H-carbazol-9-yl)piperidin-3-ol] it is 280 nM.
The figure for `CC(C)(C)OC(=O)N1CC[C@@H](O)[C@H](n2c3ccc(F)cc3c3cc(F)ccc32)C1` (single isomer, unassigned) [Compound 47] is 576 nM; for `O[C@@H]1CNCC[C@H]1n1c2ccc(F)cc2c2cc(F)ccc21` (racemic) [Compound 62] it is 263 nM; for `O[C@H]1CNCC[C@@H]1n1c2ccc(C(F)(F)F)cc2c2cc(C(F)(F)F)ccc21` [Compound 61, (3S,4S)-4-(3,6-bis(trifluoromethyl)-9H-carbazol-9-yl)piperidin-3-ol] it is 20.5 nM.
For the compound `O[C@@H]1CCN(CCCC(F)(F)F)C[C@H]1n1c2ccc(F)cc2c2cc(F)ccc21` [Compound 49, (3R,4R)-3-(3,6-difluoro-9H-carbazol-9-yl)-1-(4,4,4-trifluorobutyl)piperidin-4-ol], the IC50 worked out at 33.6 nM.
In the case of `O[C@@H]1CNCC[C@H]1n1c2ccc(C(F)(F)F)cc2c2cc(C(F)(F)F)ccc21` (racemic) [Compound 68, trans-4-(3,6-bis(trifluoromethyl)-9H-carbazol-9-yl)piperidin-3-ol], the IC50 is 22.2 nM.
Then `O[C@@H]1CCN(CC2(C(F)(F)F)CC2)C[C@H]1n1c2ccc(F)cc2c2cc(F)ccc21` [Compound 53, (3R,4R)-3-(3,6-difluoro-9H-carbazol-9-yl)-1-((1-(trifluoromethyl)cyclopropyl)methyl)piperidin-4-ol], with 73.6 nM; and `CC(C)(C)CN1CC[C@@H](O)[C@H](n2c3ccc(F)cc3c3cc(F)ccc32)C1` [Compound 51, (3R,4R)-3-(3,6-difluoro-9H-carbazol-9-yl)-1-neopentylpiperidin-4-ol], with 555 nM; and `O[C@@H]1CCN(CCC(F)(F)F)C[C@H]1n1c2ccc(F)cc2c2cc(F)ccc21` [Compound 45, (3R,4R)-3-(3,6-difluoro-9H-carbazol-9-yl)-1-(3,3,3-trifluoropropyl)piperidin-4-ol], with 96 nM.
On to `CC(C)(C)OC(=O)N1CC[C@H](O)[C@@H](n2c3ccc(F)cc3c3cc(F)ccc32)C1` (single isomer, unassigned) [Compound 48], for which the half-inhibitory concentration (IC50) is 1260 nM.
The figure for `O[C@H]1CCN(Cc2ccccc2)C[C@@H]1n1c2ccc(F)cc2c2cc(F)ccc21` (single isomer, unassigned) [Compound 43] is 910 nM; for `O[C@@H]1CCNC[C@H]1n1c2ccc(Cl)cc2c2cc(Cl)ccc21` (single isomer, unassigned) [Compound 66] it is 1690 nM; for `CC(C)(C)OC(=O)N1CC[C@@H](O)[C@H](n2c3ccc(F)cc3c3cc(F)ccc32)C1` (racemic) [Compound 44, trans-tert-butyl 3-(3,6-difluoro-9H-carbazol-9-yl)-4-hydroxypiperidine-1-carboxylate] it is 792 nM.
As for `O[C@@H]1CCN(Cc2ccccc2)C[C@H]1n1c2ccc(F)cc2c2cc(F)ccc21` (relative stereo) [Compound 63, trans-1-benzyl-3-(3,6-difluoro-9H-carbazol-9-yl)piperidin-4-ol], the IC50 is 233 nM.
`O[C@@H]1CN(CCC(F)(F)F)CC[C@H]1n1c2ccc(Cl)cc2c2cc(Cl)cnc21` [Compound 58, (3R,4R)-4-(3,6-dichloro-9H-pyrido[2,3-b]indol-9-yl)-1-(3,3,3-trifluoropropyl)piperidin-3-ol]: the IC50 stood at 724 nM.
As for `O[C@@H]1CCN(CCC(F)(F)F)C[C@H]1n1c2ccc(Cl)cc2c2cc(Cl)cnc21` [Compound 57, (3R,4R)-3-(3,6-dichloro-9H-pyrido[2,3-b]-indol-9-yl)-1-(3,3,3-trifluoropropyl)piperidin-4-ol], the IC50 was 2240 nM.
`CC(C)(C)OC(=O)N1CC[C@@H](n2c3ccc(F)cc3c3cc(F)ccc32)[C@H](O)C1` (racemic) [Compound 46, trans-tert-butyl 4-(3,6-difluoro-9H-carbazol-9-yl)-3-hydroxypiperidine-1-carboxylate]: the IC50 was found to be 1330 nM.

The values are drawn from patent US9908863B2, “Piperidinylcarbazoles” (Merck Patent GmbH, priority 2013, dated 2018).
